Measurements as given in patent US20220175738A1, “Tip60 Inhibitors and Methods of Use for Cardiovascular Disease” (The Medical College of Wisconsin, Inc., priority 2019, published 2022).

System: wild-type rat neonatal CMs
Test: Neonatal CM cell culture model: proliferation and apoptosis (planned)
Type: cell-based
Conditions: low concentrations 0.1-3 μM, 24 hours; expected
From the text: The cells will then be assessed for cell proliferation by direct cell counting and [3H]-thymidine incorporation as well as by immunostaining for Ki67, BrdU and pH3. Apoptosis will also be evaluated, by TUNEL labeling and by staining of caspase-3. All results will be confirmed using a minimum of three independent determinations, and statistical evaluation will be performed using ANOVA or a Student's t-test, as appropriate.

SMILES: c1cc(SSc2ccns2)sn1 [NU9056]
- CM proliferation (cell counting, [3H]-thymidine, Ki67, BrdU, pH3): promote CM proliferation
